Drawing on ChEMBL document CHEMBL1139127, “Structural modifications of (1S,3S)-3-amino-4-difluoromethylenecyclopentanecarboxylic acid, a potent irreversible inhibitor of GABA aminotransferase” (Bioorg Med Chem Lett, 2007), this text covers Activity for 1 molecule.

Calls of active or inactive are those of the source. The rule behind the calls is not given here.

The target in assay [1] is 4-aminobutyrate aminotransferase, mitochondrial (Homo sapiens) (UniProt P80404). Put plainly: Inhibition of GABA-AT at 10 mM assessed as residual activity.
Assay [2] shares this target. Briefly: Inhibition of GABA-AT at 1.7 mM.

4-aminobutyrate aminotransferase, mitochondrial (Homo sapiens), sequence (P80404 whole entry): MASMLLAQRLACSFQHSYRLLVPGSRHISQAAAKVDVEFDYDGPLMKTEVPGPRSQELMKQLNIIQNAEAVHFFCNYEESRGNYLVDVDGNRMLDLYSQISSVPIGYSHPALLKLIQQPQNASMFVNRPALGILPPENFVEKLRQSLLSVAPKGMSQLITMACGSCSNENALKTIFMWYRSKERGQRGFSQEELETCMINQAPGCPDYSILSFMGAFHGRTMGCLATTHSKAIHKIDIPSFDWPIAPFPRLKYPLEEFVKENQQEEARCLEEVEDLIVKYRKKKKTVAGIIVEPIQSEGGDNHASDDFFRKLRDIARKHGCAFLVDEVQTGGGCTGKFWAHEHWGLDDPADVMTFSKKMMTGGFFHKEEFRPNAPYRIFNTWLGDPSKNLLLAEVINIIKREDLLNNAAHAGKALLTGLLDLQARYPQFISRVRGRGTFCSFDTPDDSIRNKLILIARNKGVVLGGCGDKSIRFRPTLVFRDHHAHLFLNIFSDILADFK

With `N[C@H]1C[C@@H](C(=O)O)CC1=C(Cl)Cl`, in assay [1], the Activity was found to be 58%. Besides, the result in assay [2] was inactive.
